The term IC50 denotes the concentration needed to halve the response being measured.

Among the data in US5502036A, “Antiherpes pentapeptide derivatives having a substituted aspartic acid side chain” (priority 1989, dated 1996) are IC50 values, retold here.

Where a SMILES comes first, the peptide text is derived from it. [ ]: non-standard residue; d: D form. The star is where a group is joined. Gly(1-COOH-cBu) = N[C@H](C(=O)O)C1(C(=O)O)CCC1; Hydrocinnamoyl = O=C(CCc1ccccc1)*; Pentanoyl(4-Me) = CC(C)CCC(=O)*; O(2S-octyl) = CCCCCC[C@H](C)O*; NHPhenethyl = c1ccc(CCN*)cc1; Tle = CC(C)(C)[C@H](N)C(=O)O; NMeV = CN[C@H](C(=O)O)C(C)C; Pyrrolidide = C1CCN(*)C1; NHIsopentyl = CC(C)CCN*; Boc = CC(C)(C)OC(=O)*; X6 = CC(C)C[C@H](C)N*; X2 = CCCCCCCCCCCCO*; X4 = CCCCCCCCN(C)*

T1 sequence (P08543 whole entry): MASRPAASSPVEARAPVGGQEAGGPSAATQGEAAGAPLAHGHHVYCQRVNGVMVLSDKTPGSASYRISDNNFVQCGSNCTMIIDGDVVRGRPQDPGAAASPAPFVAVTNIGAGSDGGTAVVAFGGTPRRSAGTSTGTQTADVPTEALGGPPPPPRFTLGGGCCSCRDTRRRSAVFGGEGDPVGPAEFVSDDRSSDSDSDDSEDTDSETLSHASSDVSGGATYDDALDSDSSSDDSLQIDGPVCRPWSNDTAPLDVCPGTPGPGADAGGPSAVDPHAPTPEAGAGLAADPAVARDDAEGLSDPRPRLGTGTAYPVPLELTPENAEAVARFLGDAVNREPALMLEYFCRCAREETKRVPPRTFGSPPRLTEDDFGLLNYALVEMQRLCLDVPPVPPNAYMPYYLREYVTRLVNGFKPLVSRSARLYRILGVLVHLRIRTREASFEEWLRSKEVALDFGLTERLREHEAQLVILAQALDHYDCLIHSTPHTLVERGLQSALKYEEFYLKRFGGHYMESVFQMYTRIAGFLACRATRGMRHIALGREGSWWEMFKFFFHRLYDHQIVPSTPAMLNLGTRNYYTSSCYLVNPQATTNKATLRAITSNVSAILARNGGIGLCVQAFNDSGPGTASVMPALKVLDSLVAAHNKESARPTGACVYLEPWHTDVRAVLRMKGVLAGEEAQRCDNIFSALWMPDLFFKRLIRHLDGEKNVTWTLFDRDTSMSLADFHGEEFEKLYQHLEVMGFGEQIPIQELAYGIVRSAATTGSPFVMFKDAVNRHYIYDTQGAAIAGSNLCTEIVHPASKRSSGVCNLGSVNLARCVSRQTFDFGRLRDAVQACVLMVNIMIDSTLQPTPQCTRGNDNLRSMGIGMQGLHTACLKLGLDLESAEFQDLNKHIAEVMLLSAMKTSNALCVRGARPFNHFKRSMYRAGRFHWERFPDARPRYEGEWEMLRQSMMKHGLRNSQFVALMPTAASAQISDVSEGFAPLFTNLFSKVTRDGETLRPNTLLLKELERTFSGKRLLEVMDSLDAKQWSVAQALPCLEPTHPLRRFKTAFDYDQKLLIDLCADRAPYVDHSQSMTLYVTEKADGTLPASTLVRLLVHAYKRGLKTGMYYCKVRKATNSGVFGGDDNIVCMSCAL

One test concerns the target T1, HSV-1 ribonucleotide reductase (partially purified) (Human herpesvirus 1, UniProt P08543).
T1 construct: obtained from quiescent BHK-21/C13 cells infected with strain F HSV-1 virus; endogenous in cells; host or cells: quiescent BHK-21/C13 cells infected with HSV-1 strain F; enzyme partially purified (Cohen et al., J. Gen. Virol. 66, 733 (1985))
The test is described as follows: biochemical. In kind it is biochemical.
Conditions: not given
The text has this:
b) Assay and Results for Exemplified Peptides
In turn, `CC(C)C[C@H](NC(=O)[C@@H](NC(=O)[C@H](CC(=O)N1CCCC1)NC(=O)[C@@H](NC(=O)[C@H](C(C)C)N(C)C(=O)CCc1ccccc1)C(C)(C)C)C1(C(=O)O)CCC1)C(=O)O` [Entry 33, PhCH2 CH2 CO--N--Me--Val--Tbg--Asp(pyrrolidino)-Asp(cyBu)-Leu--OH] (Hydrocinnamoyl-[NMeV][Tle]D(Pyrrolidide)[Gly(1-COOH-cBu)]L-OH) had an IC50 of 60 nM.
The molecule `CC[C@H](C)[C@H](NC(=O)[C@H](C(C)C)N(C)C(=O)CCc1ccccc1)C(=O)N[C@@H](CC(=O)N1CCCC1)C(=O)N[C@@H](CC(=O)O)C(=O)N[C@@H](C)CC(C)C` [Entry 41, PhCH2 CH2 CO--N--Me--Val--Ile--Asp(pyrrolidino)-Asp--NHCH(CH3)CH2 CH(CH3)2] (Hydrocinnamoyl-[NMeV]ID(Pyrrolidide)D-X6) showed an IC50 of 2600 nM.
Still for that read-out and setting: for `CC[C@H](C)[C@H](NC(=O)[C@H](C(C)C)N(C)C(=O)CCc1ccccc1)C(=O)N[C@@H](CC(=O)N1CCCC1)C(=O)N[C@@H](CC(=O)O)C(=O)NCCC(C)C` [Entry 38, PhCH2 CH2 CO--N--Me--Val--Ile--Asp(pyrrolidino)-Asp--NHCH2 CH2 CH(CH3)2] (Hydrocinnamoyl-[NMeV]ID(Pyrrolidide)D-NHIsopentyl) the value was 1300 nM; for `CCCCCCCCCCCCOC(=O)C[C@H](NC(=O)[C@@H](NC(=O)[C@H](C(C)C)N(C)C(=O)CCc1ccccc1)[C@@H](C)CC)C(=O)N[C@@H](CC(=O)O)C(=O)N[C@@H](CC(C)C)C(=O)O` [Entry 29, PhCH2 CH2 CO--N--Me--Val--Ile--Asp(dodecyloxy)-Asp--Leu--OH] (Hydrocinnamoyl-[NMeV]ID(X2)DL-OH), 4200 nM.
As to `CC[C@H](C)[C@H](NC(=O)[C@H](C(C)C)N(C)C(=O)CCc1ccccc1)C(=O)N[C@@H](CC(=O)N1CCCC1)C(=O)N[C@@H](CC(=O)O)C(=S)N[C@@H](CC(C)C)C(=O)O` [Entry 40, PhCH2 CH2 CO--N--Me--Val--Ile--Asp(pyrrolidino)-.PSI. CSNH!Asp--Leu--OH], the IC50 came out at 160 nM.
With `CCCCCC[C@H](C)OC(=O)C[C@H](NC(=O)[C@@H](NC(=O)[C@H](C(C)C)N(C)C(=O)CCc1ccccc1)[C@@H](C)CC)C(=O)N[C@@H](CC(=O)O)C(=O)N[C@@H](CC(C)C)C(N)=O` [Entry 31, PhCH2 CH2 CO--N--Me--Val--Ile--Asp 1(S)-methylheptyloxy!-Asp--Leu--NH2] (Hydrocinnamoyl-[NMeV]ID(O(2S-octyl))DL-NH2), the IC50 was 1900 nM.
Take `CCCCCCCCN(C)C(=O)C[C@H](NC(=O)[C@@H](NC(=O)[C@H](C(C)C)N(C)C(=O)CCc1ccccc1)[C@@H](C)CC)C(=O)N[C@@H](CC(=O)O)C(=O)N[C@@H](CC(C)C)C(=O)O` [Entry 32, PhCH2 CH2 CO--N--Me--Val--Ile--Asp NMe(octyl)!-Asp--Leu--OH] (Hydrocinnamoyl-[NMeV]ID(X4)DL-OH): the midpoint of inhibition, the IC50, lay at 260 nM.
`CCCCCC[C@H](C)OC(=O)C[C@H](NC(=O)[C@@H](NC(=O)[C@H](C(C)C)N(C)C(=O)CCc1ccccc1)[C@@H](C)CC)C(=O)N[C@@H](CC(=O)O)C(=O)N[C@@H](CC(C)C)C(=O)OC` [Entry 37, PhCH2 CH2 CO--N--Me--Val--Ile--Asp 1(S)-methylheptyloxy!-Asp--Leu--OCH3] (Hydrocinnamoyl-[NMeV]ID(O(2S-octyl))DL-OMe) came in with an IC50 of 2000 nM.
Turning to `CCCCCC[C@H](C)OC(=O)C[C@H](NC(=O)[C@@H](NC(=O)[C@H](C(C)C)N(C)C(=O)CCC(C)C)[C@@H](C)CC)C(=O)N[C@@H](CC(=O)O)C(=O)N[C@@H](CC(C)C)C(=O)O` [Entry 30, 4-Methylpentanoyl-N--Me--Val--Ile--Asp 1(S)-methylheptyloxy!-Asp--Leu--OH] ({Pentanoyl(4-Me)}-[NMeV]ID(O(2S-octyl))DL-OH), half-maximal inhibition (IC50) was put at 1700 nM.

The same test, now with this note: Table 4; concentration producing 50% of the maximal inhibition of enzyme activity; mean of four assays; read-out: IC50.
As for `CC[C@H](C)[C@H](NC(=O)[C@H](C(C)C)N(C)C(=O)OC(C)(C)C)C(=O)N[C@@H](CC(=O)NCCc1ccccc1)C(=O)N[C@@H](CC(=O)O)C(=O)N[C@@H](CC(C)C)C(=O)O` [Entry 24, Boc--N--Me--Val--Ile--Asp(NHCH2 CH2 Ph)--Asp--Leu--OH] (Boc-[NMeV]ID(NHPhenethyl)DL-OH), the IC50 amounted to 1600 nM.
